Data set [1] in a line: RP-TLC lipophilicity on RP-18F254 plates (Soczewiński-Wachtmeister's and Ościk's equations). In kind it is physicochemical. Particulars: for RMWO(m) / RMWS(m) / φ0(m): methanol-water mobile phase; for RMWS(a) / RMWS(m): Soczewiński-Wachtmeister's equation; for φ0(a) / φ0(m): φ0 = RMWS/S (Equation 6). How it is done:
The chromatographic analysis was carried on RP-18F254 plates (Art.1.05559, E. Merck, Darmstadt, Germany). The solutions of the investigated compounds were spotted separately onto chromatographic plates using precise micropipettes in a quantity of 5 µL each.
The chromatograms were developed using the mixtures of methanol-water and acetone-water in different volume compositions, as follows:
For antiparasitic drugs: • - the content of methanol was gradually varied by 10% (v/v) from 20–100 (%, v/v), • - the content of acetone was gradually varied by 10% (v/v) from 10–100 (%, v/v).
In the case of antihypertensive drugs, the content of methanol and acetone was gradually varied by 5% (v/v) from 60–100 (%, v/v).
For non-steroidal anti-inflammatory drugs: • - the content of methanol was gradually varied by 5% (v/v) from 60–100 (%, v/v), • - the content of acetone was gradually varied by10% (v/v) from 20–100 (%, v/v).
Next, the chamber was saturated with solvent vapor for 20 min. The chromatograms were developed at room temperature, e.g., 22 ± 1 °C. The development distance was 75 mm. The plates were dried at room temperature, e.g., 22 ± 1 °C. Each chromatogram was done in triplicate.
Densitometric scanning was done using a TLC Scanner 3 with WinCATS 1.4.2 software manufactured by Camag (Muttenz, Switzerland) in the reflectance/absorbance mode.
Densitometric scanning was performed at a respective absorption maximum for the analyzed drugs. The slit dimensions were 10.00 × 0.40 mm, Macro; the optimized optical system was light; the scanning speed was 20 mm/s; the data resolution was 100 μm/step; the measurement type was remission; the measurement mode was absorption; and the optical filter was second order. Each track was scanned three times, and a baseline correction (lowest slope) was used.
In order to determine the lipophilicity parameter based on Soczewiński-Wachtmeister′s procedure, the RF values obtained under the applied chromatographic conditions were converted into RM values according to the expression:(4) RM=log1/RF−1 The linear relationship between RM and the volume content of methanol and acetone in the mobile phase (φ) permits an extrapolation of the calculated RM values to the zero concentration of methanol and acetone in accordance with Soczewiński-Wachtmeister′s Equation (5). […] (5) RM=RMWS−Sφ where: RM is the RM value of the studied compound, RMWS is the RM value extrapolated to zero concentration of methanol and acetone (organic modifier) in the used mobile phase, i.e., methanol-water and acetone-water, respectively, S is the slope of the regression plot (see Supplementary Materials), and φ is the volume fraction of methanol and acetone in the mobile phase. In addition to this, on the basis of the said plot, i.e., Soczewiński-Wachtmeister′s equation, another chromatographic descriptor (φ0) has been calculated according to the following formula (Equation (6)): (6) φ0 = RMWS/S where: RMWS is the chromatographic parameter obtained by using Soczewiński-Wachtmeister’s equation in accordance with Equation (5), and S is the regression slope.
The measurable lipophilicity value expressed as RMWO was determined according to Ościk’s equation [29, 30, 32]:(7) Gxorg=xorg1−xorg/RM−xorgRMorg−1−xorgRMWO=axorg+b where: RM, RMorg, and RMWO are the solute retention factors in the mixed mobile phase, pure organic solvent, and water, respectively; xorg is the molar fraction of the organic solvent in the mobile phase; a and b are constants in the linear correlation between G(xorg) and xorg in the used mobile phase.

A short description of data set [2]: Prediction of logPexp from φ0(a) with Equation (3). In kind it is physicochemical. Particulars: chromatography with acetone-water mobile phase; calculated from φ0(a) with Equation (3); read-out: predicted logPexp. The source says:
The continuation of our lipophilicity study of fifteen biocompounds belonging to the three groups of drugs and the determination of another lipophilicity descriptor, namely φ0, in accordance with Equation (6), allowed us to obtain the two new lipophilicity parameters φ0(a) and φ0(m) for a proper used mobile phase, i.e., acetone-water (a) and methanol-water (m), respectively. What is important is that the calculation of this parameter was possible because a satisfactory linear relationship between both, i.e., the intercept and slope (RMWS and S), in each obtained Soczewiński-Wachtmeister’s equation was achieved (r > 0.98). In order to estimate the utility of these parameters for the prediction of the theoretical as well as experimental parameter of the lipophilicity of a large group of investigated compounds, a correlation matrix between all previously described (thus chromatographic) parameters, as well as the computed and experimental partition coefficient, was done. The results of the correlation analysis indicate that among all φ0 values the best is the one obtained for acetone-water, which is to say φ0(a). […]
This fact confirms the potential utility of the additionally calculated chromatographic parameter φ0(a) to determine the partition coefficient of all examined compounds. It can be very useful in the case of the lack of this value, like for example for the experimental logP of nilvadipine, lacidipine and carprofen. A test was performed on Equation (3) to determine the values of logPexp for the three abovementioned compounds. The results of the predicted logPexp were: 3.65 for nilvadipine, 3.96 for lacidipine and 3.54 for carprofen, respectively. It can be observed that the newly obtained logPexp values are in good agreement with the other previously described theoretical logP of these compounds. They are placed in the similar range of logP values.

Details of data set [3]: method as in PMID 12972078. Particulars: RP-HPLC, cited from earlier work.
Data set [4] is described as follows: Experimental n-octanol-water partition coefficient (logPexp) from literature and databases. Particulars: average of the differing literature logPexp values (± spread). The format is physicochemical. The text has this: The next stage of this paper was a comparison of all obtained RMWS and RMWO parameters calculated using […] equations with theoretical and experimental logP values obtained in an n-octanol-water system.

The conditions of data set [5]: n-octanol-water, cited from earlier work.
The conditions of data set [6]: cited from earlier work.
Details of data set [7]: method as in doi:10.1016/S0021-9673(01)88013-4. The following applies: RP-HPLC; cited from earlier work.
For data set [8] the following is noted: cited from earlier work. This is another data set of the same source.
Setting [9] is: Ościk's equation, silica gel RP-18F254.
The mark [10] stands for this setting: acetone-water mobile phase, silica gel RP-18F254.

SMILES strings stand for the structures. Read-outs that look alike come from different tables or passages of the source.

Take `CC(C(=O)O)c1ccc2c(c1)[nH]c1ccc(Cl)cc12` (centres unmarked) [Carprofen, carprofen]: in data set [1] (setting [9]), the “RMWO(m)” value is 2.77. Besides, the “RMWS(a)” value in data set [1] (setting [10]) amounted to 2.56. In addition, in data set [1] (silica gel RP-18F254), the “RMWS(m)” value was determined as 2.34. The “φ0(a)” value in data set [1] (acetone-water mobile phase) is on record as 0.754. Also, the “φ0(m)” value in data set [1] turned out to be 0.820. Moreover, the chromatographic logP in data set [2] was 3.54. The “log kwODS” value in data set [3] (ODS column μBondapak C18) was 3.85. Further, the “log kw IAM” value in data set [3] (immobilized artificial membrane (IAM.PC.MG) column) was 1.81.

Regarding `Cc1ncc([N+](=O)[O-])n1CCO` [Metronidazole, metronidazole], the “RMWO(a)” value in data set [1] (Ościk's equation, acetone-water mobile phase, silica gel RP-18F254) is 0.94. In data set [1] (setting [9]), the “RMWO(m)” value is recorded as 1.21. The “RMWS(a)” value in data set [1] (setting [10]) was determined as 0.65. In addition, in data set [1] (silica gel RP-18F254), the “RMWS(m)” value was found to be 0.91. Further, the “φ0(a)” value in data set [1] (acetone-water mobile phase) amounted to 0.398. Moreover, in data set [1], the “φ0(m)” value is 0.564. The same compound showed a logP in data set [4] of 0.1. Besides, the logPexp entry in data set [5] (ref 34) is “–0.22”; in data set [5] (ref 35), “–0.10”; in data set [5] (ref 36), “–0.02 [36]”; in data set [5] (ref 37), 0.75 [37]. For the same compound, the RMW in data set [6] (RP-TLC, Soczewiński-Wachtmeister's equation) is 0.08. For the same compound, in data set [6] (stationary phase liquid paraffin), the “RMW(paraffin)” value is recorded as 0.60. In data set [6] (stationary phase squalene), the “RMW(squalene)” value is 0.53. The “logk'” value in data set [7] is reported as “–0.067”. Besides, the hydrophilic-hydrophobic properties result is reported as “lipophilic compound that penetrates well into most tissues” in data set [8] (according to Hoffmann et al. and Jokipii et al.); “hydrophilic” in data set [8] (reported by Biagi); “very hydrophilic” in data set [8] (reported by Másson et al.).

The values are drawn from PMC6749294, “Comparison of the Utility of RP-TLC Technique and Different Computational Methods to Assess the Lipophilicity of Selected Antiparasitic, Antihypertensive, and Anti-inflammatory Drugs” (Molecules, 2019).
